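Tested at 5 concentrations; 48 h exposure; 96-well plates; endpoints linearly interpolated, else capped at highest concentration. GI50: concentration for 50% inhibition of growth.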 Activity calls are given as the source filed them. No stated cut-off is given here; in the data, active = GI50 up to about 1.1 µM and inactive = higher.
Key:
Experiment in all cases: inhibition of tumour cell growth, NCI panel, 48 h
786-0 = test system: 786-0
A498 = test system: A498
A549 = test system: A549
ACHN = test system: ACHN
CAKI-1 = test system: CAKI-1
CCRF-CEM = test system: CCRF-CEM
COLO 205 = test system: COLO 205
DLD-1 = test system: DLD-1
DMS-114 = test system: DMS-114
DMS-273 = test system: DMS-273
EKVX = test system: EKVX
HCC 2998 = test system: HCC 2998
HCT-116 = test system: HCT-116
HCT-15 = test system: HCT-15
HL-60 = test system: HL-60
HOP-62 = test system: HOP-62
HT-29 = test system: HT-29
K562 = test system: K562
KM-20L2 = test system: KM-20L2
KM12 = test system: KM12
LOX IMVI = test system: LOX IMVI
LXFL 529 = test system: LXFL 529
M14 = test system: M14
M19-MEL = test system: M19-MEL
MOLT-4 = test system: MOLT-4
Malme-3M = test system: Malme-3M
NCI-H226 = test system: NCI-H226
NCI-H23 = test system: NCI-H23
NCI-H460 = test system: NCI-H460
NCI-H522 = test system: NCI-H522
OVCAR-3 = test system: OVCAR-3
OVCAR-4 = test system: OVCAR-4
OVCAR-5 = test system: OVCAR-5
OVCAR-8 = test system: OVCAR-8
RXF 393 = test system: RXF 393
SF-268 = test system: SF-268
SF-295 = test system: SF-295
SF-539 = test system: SF-539
SK-MEL-28 = test system: SK-MEL-28
SK-MEL-5 = test system: SK-MEL-5
SK-OV-3 = test system: SK-OV-3
SN12C = test system: SN12C
SNB-19 = test system: SNB-19
SNB-75 = test system: SNB-75
SNB-78 = test system: SNB-78
SR = test system: SR
TK-10 = test system: TK-10
U-251 = test system: U-251
UACC-257 = test system: UACC-257
UACC-62 = test system: UACC-62
UO-31 = test system: UO-31
XF498 = test system: XF498
HOP-18 = test system: HOP-18
HOP-92 = test system: HOP-92
IGROV-1 = test system: IGROV-1
RPMI-8226 = test system: RPMI-8226
RXF 631 = test system: RXF 631
SK-MEL-2 = test system: SK-MEL-2
SW-620 = test system: SW-620

For `Cn1cc/c(=N\N=c2/ccn(C)c3ccccc23)c2ccccc21`, the GI50 (786-0) was 16.4 µM (inactive), the GI50 (A498) was 18.5 µM (inactive) and the GI50 (A549) was 15.7 µM (inactive). For the same molecule, the GI50 (ACHN) was 13.9 µM (inactive), the GI50 (CAKI-1) was 17.9 µM (inactive) and the GI50 (CCRF-CEM) was 6.31 µM (inactive). For the same molecule, the GI50 (COLO 205) was 10.4 µM (inactive), the GI50 (DLD-1) was 14.7 µM (inactive) and the GI50 (DMS-114) was 14.4 µM (inactive). For the same molecule, the GI50 (DMS-273) was 16.4 µM (inactive), the GI50 (EKVX) was 14.7 µM (inactive) and the GI50 (HCC 2998) was 15.8 µM (inactive). The GI50 (HCT-116) was 11.1 µM (inactive), the GI50 (HCT-15) was 15.8 µM and the GI50 (HL-60) was 5.78 µM (inactive). For the same molecule, the GI50 (HOP-62) was 13.1 µM (inactive), the GI50 (HT-29) was 12.7 µM (inactive) and the GI50 (K562) was 4.44 µM (inactive). For the same molecule, the GI50 (KM-20L2) was 13.1 µM (inactive), the GI50 (KM12) was 13 µM (inactive) and the GI50 (LOX IMVI) was 11.9 µM (inactive). For the same molecule, the GI50 (LXFL 529) was 14.1 µM (inactive), the GI50 (M14) was 16.9 µM (inactive) and the GI50 (M19-MEL) was 18.7 µM (inactive). The GI50 (MOLT-4) was 27.1 µM (inactive), the GI50 (Malme-3M) was 17.2 µM (inactive) and the GI50 (NCI-H226) was 11.7 µM (inactive). The GI50 (NCI-H23) was 13.2 µM (inactive), the GI50 (NCI-H460) was 12.1 µM (inactive) and the GI50 (NCI-H522) was 14.6 µM (inactive). For the same molecule, the GI50 (OVCAR-3) was 11.7 µM (inactive), the GI50 (OVCAR-4) was 12.7 µM (inactive) and the GI50 (OVCAR-5) was 15.8 µM (inactive). For the same molecule, the GI50 (OVCAR-8) was 14.9 µM (inactive), the GI50 (RXF 393) was 14.3 µM (inactive) and the GI50 (SF-268) was 19.3 µM (inactive). For the same molecule, the GI50 (SF-295) was 16.1 µM (inactive), the GI50 (SF-539) was 15.9 µM (inactive) and the GI50 (SK-MEL-28) was 15.2 µM (inactive). The GI50 (SK-MEL-5) was 15.9 µM (inactive), the GI50 (SK-OV-3) was 15.7 µM (inactive) and the GI50 (SN12C) was 16.9 µM (inactive). For the same molecule, the GI50 (SNB-19) was 16.9 µM (inactive), the GI50 (SNB-75) was 24.1 µM (inactive) and the GI50 (SNB-78) was 16.4 µM (inactive). The GI50 (SR) was 16.4 µM (inactive), the GI50 (TK-10) was 19.1 µM (inactive) and the GI50 (U-251) was 15.7 µM (inactive). For the same molecule, the GI50 (UACC-257) was 13.9 µM (inactive), the GI50 (UACC-62) was 16.2 µM (inactive) and the GI50 (UO-31) was 13.2 µM (inactive). The GI50 (XF498) was 14.1 µM (inactive).

`O=C1C(=O)C(Br)(Br)C(Br)=C1Br` was tested, and the GI50 (786-0) was 16.4 µM (inactive), the GI50 (A549) was 37.4 µM (inactive) and the GI50 (ACHN) was 15.9 µM (inactive). The GI50 (CAKI-1) was 18.4 µM (inactive), the GI50 (CCRF-CEM) was 16.2 µM (inactive) and the GI50 (COLO 205) was 17.1 µM (inactive). For the same molecule, the GI50 (DLD-1) was 18.8 µM (inactive), the GI50 (DMS-114) was 18.8 µM (inactive) and the GI50 (DMS-273) was 22.3 µM (inactive). The GI50 (EKVX) was 25.4 µM (inactive), the GI50 (HCC 2998) was 20.5 µM (inactive) and the GI50 (HCT-15) was 19.8 µM. The GI50 (HL-60) was 18.7 µM (inactive), the GI50 (HOP-18) was 15.6 µM (inactive) and the GI50 (HOP-62) was > 100 µM (inactive). The GI50 (HOP-92) was 14 µM (inactive), the GI50 (HT-29) was 19 µM (inactive) and the GI50 (IGROV-1) was 38.1 µM (inactive). The GI50 (K562) was 20 µM (inactive), the GI50 (KM-20L2) was 15 µM (inactive) and the GI50 (KM12) was 12.9 µM (inactive). The GI50 (LOX IMVI) was 13.7 µM (inactive), the GI50 (LXFL 529) was 15.2 µM (inactive) and the GI50 (M14) was 17.6 µM (inactive). For the same molecule, the GI50 (M19-MEL) was 19.1 µM (inactive), the GI50 (MOLT-4) was 24.4 µM (inactive) and the GI50 (Malme-3M) was 20 µM (inactive). The GI50 (NCI-H23) was > 10 µM (inactive), the GI50 (NCI-H460) was 34 µM (inactive) and the GI50 (NCI-H522) was 2.33 µM (inactive). For the same molecule, the GI50 (OVCAR-3) was 15.5 µM (inactive), the GI50 (OVCAR-4) was 22.4 µM (inactive) and the GI50 (OVCAR-5) was 13.6 µM (inactive). For the same molecule, the GI50 (OVCAR-8) was 17.3 µM (inactive), the GI50 (RPMI-8226) was 22.3 µM (inactive) and the GI50 (RXF 393) was > 10 µM (inactive). The GI50 (RXF 631) was 37.9 µM (inactive), the GI50 (SF-268) was > 10 µM (inactive) and the GI50 (SF-295) was 57.4 µM (inactive). The GI50 (SF-539) was 19 µM (inactive), the GI50 (SK-MEL-28) was 15.6 µM (inactive) and the GI50 (SK-MEL-2) was 17.1 µM (inactive). For the same molecule, the GI50 (SK-MEL-5) was 15.4 µM (inactive), the GI50 (SK-OV-3) was > 100 µM (inactive) and the GI50 (SN12C) was 23.7 µM (inactive). The GI50 (SNB-19) was 68.9 µM (inactive), the GI50 (SNB-75) was 14.4 µM (inactive) and the GI50 (SW-620) was 13.8 µM (inactive). The GI50 (TK-10) was 19.4 µM (inactive), the GI50 (U-251) was 25.2 µM (inactive) and the GI50 (UACC-257) was 20.3 µM (inactive). For the same molecule, the GI50 (UACC-62) was 18.5 µM (inactive) and the GI50 (UO-31) was 17.8 µM (inactive).

For `CCOC(=O)NC(=O)c1cn(CCOCCOC(=O)NCCCCCCNC(=O)OCCOCCn2cc(C(=O)NC(=O)OCC)c(=O)[nH]c2=O)c(=O)[nH]c1=O`, the GI50 (786-0) was > 100 µM (inactive), the GI50 (A498) was > 100 µM (inactive) and the GI50 (A549) was > 100 µM (inactive). The GI50 (ACHN) was > 100 µM (inactive), the GI50 (COLO 205) was > 100 µM (inactive) and the GI50 (DLD-1) was > 100 µM (inactive). For the same molecule, the GI50 (DMS-114) was > 100 µM (inactive), the GI50 (DMS-273) was > 100 µM (inactive) and the GI50 (EKVX) was > 100 µM (inactive). For the same molecule, the GI50 (HCC 2998) was > 100 µM (inactive), the GI50 (HCT-116) was > 100 µM (inactive) and the GI50 (HCT-15) was greater than 100 µM. For the same molecule, the GI50 (HL-60) was > 100 µM (inactive), the GI50 (HOP-18) was > 100 µM (inactive) and the GI50 (HOP-62) was > 100 µM (inactive). For the same molecule, the GI50 (HOP-92) was > 100 µM (inactive), the GI50 (HT-29) was > 100 µM (inactive) and the GI50 (IGROV-1) was > 100 µM (inactive). For the same molecule, the GI50 (K562) was > 100 µM (inactive), the GI50 (KM-20L2) was > 100 µM (inactive) and the GI50 (KM12) was > 100 µM (inactive). For the same molecule, the GI50 (LOX IMVI) was > 100 µM (inactive), the GI50 (LXFL 529) was > 100 µM (inactive) and the GI50 (M14) was > 100 µM (inactive). For the same molecule, the GI50 (M19-MEL) was > 100 µM (inactive), the GI50 (Malme-3M) was > 100 µM (inactive) and the GI50 (NCI-H23) was > 100 µM (inactive). For the same molecule, the GI50 (NCI-H460) was > 100 µM (inactive), the GI50 (NCI-H522) was > 100 µM (inactive) and the GI50 (OVCAR-3) was > 100 µM (inactive). The GI50 (OVCAR-4) was > 100 µM (inactive), the GI50 (OVCAR-5) was > 100 µM (inactive) and the GI50 (OVCAR-8) was > 100 µM (inactive). For the same molecule, the GI50 (RPMI-8226) was > 100 µM (inactive), the GI50 (RXF 393) was > 100 µM (inactive) and the GI50 (RXF 631) was > 100 µM (inactive). For the same molecule, the GI50 (SF-268) was > 100 µM (inactive), the GI50 (SF-295) was > 100 µM (inactive) and the GI50 (SF-539) was > 100 µM (inactive). For the same molecule, the GI50 (SK-MEL-28) was > 100 µM (inactive), the GI50 (SK-MEL-2) was > 100 µM (inactive) and the GI50 (SK-MEL-5) was > 100 µM (inactive). The GI50 (SK-OV-3) was > 100 µM (inactive), the GI50 (SN12C) was > 100 µM (inactive) and the GI50 (SNB-19) was > 100 µM (inactive). The GI50 (SNB-75) was > 100 µM (inactive), the GI50 (SNB-78) was > 100 µM (inactive) and the GI50 (SR) was > 100 µM (inactive). The GI50 (SW-620) was > 100 µM (inactive), the GI50 (TK-10) was > 100 µM (inactive) and the GI50 (U-251) was > 100 µM (inactive). The GI50 (UACC-257) was > 100 µM (inactive), the GI50 (UACC-62) was > 100 µM (inactive) and the GI50 (UO-31) was > 100 µM (inactive).
